Data taken from article PMC6950057, “Toxicity, Pharmacokinetics, and Gut Microbiome of Oral Administration of Sesterterpene MHO7 Derived from a Marine Fungus” (Marine Drugs, 2019).

Test system: gut microbiota
Test: Gut (cecal) microbiota analysis by 16S rRNA sequencing
Format: in vivo, mice
Settings: for amount of OTUs vs control: p < 0.001; for gut community richness (Sobs index) vs control: p < 0.01
Procedure: Fresh cecal samples from 24 (n = 6 per group) mice were collected at 1, 8 and 30 h after oral administration of 500 mg·kg^−1 MHO7 meanwhile control group was collected at 8 h after oral the same volume corn oil, respectively. All of the cecal samples were collected in sterile environments and containers, snap-frozen in liquid nitrogen, and then stored at −80 °C.
Microbial DNA was extracted from 24 cecal samples using the E.Z.N.A.® soil DNA Kit (Omega Bio-tek, Norcross, GA, USA) according to manufacturer’s protocols. The final DNA concentration and purification were determined by NanoDrop 2000 UV-vis spectrophotometer (Thermo Scientific, Wilmington, DE, USA), and DNA quality was checked by 1% agarose gel electrophoresis. The V3-V4 hypervariable regions of the bacteria 16S rRNA gene were amplified with primers 338F (5’- […]-3’) and 806R (5’-[…]-3’) by thermocycler PCR system (GeneAmp 9700, ABI, Foster City, CA, USA). The PCR reactions were conducted using the following program: 3 min of denaturation at 95 °C; 27 cycles of 30 s at 95 °C, 30 s for annealing at 55 °C, and 45 s for elongation at 72 °C; and a final extension at 72 °C for 10 min. PCR reactions were performed in triplicate 20 μL mixture containing 4 μL of 5 × FastPfu Buffer, 2 μL of 2.5 mM·L^−1 dNTPs, 0.8 μL of each primer (5 μM·L^−1), 0.4 μL of FastPfu Polymerase, and 10 ng of template DNA. The resulted PCR products were extracted from a 2% agarose gel and further purified using the AxyPrep DNA Gel Extraction Kit (Axygen Biosciences, Union City, CA, USA) and quantified using QuantiFluor ™ -ST (Promega, Madison, […], USA) according to the manufacturer’s protocol.
Purified amplicons were pooled in equimolar and paired-end sequenced (2 × 300) on an Illumina MiSeq platform (Illumina, San Diego, CA, USA) according to the standard protocols by Majorbio Bio-Pharm Technology Co. Ltd. (Shanghai, China).
Raw fastq files were quality-filtered by Trimmomatic and merged by FLASH according to the following criteria: (i) The reads were truncated at any site receiving an average quality score < 20 over a 50 bp sliding window. (ii) Sequences whose overlap was longer than 10 bp were merged according to their overlap with mismatch no more than 2 bp. (iii) Sequences of each sample were separated according to barcodes (exactly matching) and Primers (allowing 2 nucleotide mismatching), and reads containing ambiguous bases were removed. Operational taxonomic units (OTUs) were clustered using UPARSE (version 7.1, http://drive5.com/uparse/) at a 97% similarity level with a novel “greedy” algorithm that performs chimera filtering and OTU clustering simultaneously. The taxonomy of each 16S rRNA gene sequence was analyzed by RDP Classifier algorithm (http://rdp.cme.msu.edu/) against the Silva (SSU123) 16S rRNA database using confidence threshold of 70%.

[1] = MHO7-1h group, cecal, oral 500 mg·kg^−1
[2] = MHO7-8h group, cecal, oral 500 mg·kg^−1
[3] = MHO7-30h group, cecal, oral 500 mg·kg^−1

SMILES: CC(C)=C/C=C/[C@H](C)[C@H]1CC[C@]2(C)C[C@@H]3C(C)=CC(=O)[C@H]3/C(C=O)=C\C[C@@H]12 [MHO7, 6-epi-ophiobolin G]
- richness, diversity, OTU number of gut microbiome vs control (MHO7-1 h group): no significant difference
- Relative abundance, class Bacilli [1]: 10.08±7.69%
- Relative abundance, class Clostridia [1]: 38.58 ± 11.1%
- Relative abundance, class Mollicutes [1]: 0.46±0.25%
- Relative abundance, class Verrucomicrobiae [1]: 0.0019±0.002%
- Relative abundance, family Bacteroidales_S24-7_group [1]: 33.99±6.67%
- Relative abundance, family Lachnospiraceae [1]: 27.23±10.42%
- Relative abundance, family Lactobacillaceae [1]: 10.05±7.69%
- Relative abundance, family Rikenellaceae [1]: 7.09±0.86%
- Relative abundance, family Ruminococcaceae [1]: 10.04±1.97%
- Relative abundance, family Verrucomicrobiaceae [1]: 0.0019±0.0021%
- Relative abundance, genus Anaeroplasma [1]: 0.12±0.11%
- Relative abundance, genus Coprococcus_1 [1]: 0.19±0.10%
- Relative abundance, genus Family_XIII_AD3011_group [1]: 0.067±0.041%
- Relative abundance, genus Lachnoclostridium [1]: 0.51±0.21%
- Relative abundance, genus Lactobacillus [1]: 10.05±7.69%
- Relative abundance, genus Papillibacter [1]: 0.0062±0.0066%
- Relative abundance, genus Peptococcus [1]: 0.010±0.0061%
- Relative abundance, genus Prevotellaceae_NK3B31_group [1]: 0.46±0.31%
- Relative abundance, genus Prevotellaceae_UCG-001 [1]: 0.78±0.51%
- Relative abundance, genus Rikenellaceae_RC9_gut_group [1]: 2.82±0.76%
- Relative abundance, genus Ruminiclostridium [1]: 0.78±0.59%
- Relative abundance, genus Ruminiclostridium_5 [1]: 0.34±0.14%
- Relative abundance, genus Ruminiclostridium_9 [1]: 0.76±0.29%
- Relative abundance, genus Ruminococcaceae_NK4A214_group [1]: 0.076±0.024%
- Relative abundance, genus Ruminococcaceae_UCG-009 [1]: 0.066±0.050%
- Relative abundance, genus Ruminococcaceae_UCG-010 [1]: 0.12±0.046%
- Relative abundance, genus Ruminococcaceae_UCG-014 [1]: 2.73±0.93%
- Relative abundance, genus Ruminococcus_1 [1]: 1.53±1.04%
- Relative abundance, genus Streptococcus [1]: 0.023±0.0050%
- Relative abundance, genus [Eubacterium]_coprostanoligenes_group [1]: 0.13±0.12%
- Relative abundance, genus [Eubacterium]_ventriosum_group [1]: 0.13±0.089%
- Relative abundance, genus g__norank_f__Bacteroidales_S24-7_group [1]: 33.99±6.67%
- Relative abundance, genus g__norank_f__Christensenellaceae [1]: 0.034±0.014%
- Relative abundance, genus g__norank_f__Lachnospiraceae [1]: 6.456±2.68%
- Relative abundance, genus g__norank_f__Ruminococcaceae [1]: 0.31±0.22%
- Relative abundance, genus norank_o__Mollicutes_RF9 [1]: 0.34±0.17%
- Relative abundance, order Anaeroplasmatales [1]: 0.12±0.11%
- Relative abundance, order Bacillales [1]: 0.0000%
- Relative abundance, order Clostridiales [1]: 38.54±11.15%
- Relative abundance, order Lactobacillales [1]: 10.10±7.65%
- Relative abundance, order Mollicutes_RF9 [1]: 0.33±0.16%
- Relative abundance, order Verrucomicrobiales [1]: 0.0022±0.0027%
- Relative abundance, phylum Deferribacteres [1]: 0.14±0.12%
- Relative abundance, phylum Proteobacteria [1]: 0.18±0.045%
- Relative abundance, phylum Saccharibacteria [1]: 0.47±0.28%
- Relative abundance, phylum Tenericutes [1]: 0.46±0.25%
- gut community diversity (Shannon index) vs control (MHO7-8 h group, OTU level, p < 0.05): decreased significantly
- amount of OTUs vs control (MHO7-8 h group): remarkable reduction
- gut community richness (Sobs index) vs control (MHO7-8 h group): remarkable reduction
- Relative abundance, class Bacilli [2]: 11.49±12.09%
- Relative abundance, class Clostridia [2]: 28.98 ± 20.11%
- Relative abundance, class Mollicutes [2]: 0.0075±0.0048%
- Relative abundance, class Verrucomicrobiae [2]: 0.80±1.18%
- Relative abundance, family Bacteroidales_S24-7_group [2]: 33.65±5.47%
- Relative abundance, family Lachnospiraceae [2]: 21.66±15.88%
- Relative abundance, family Lactobacillaceae [2]: 11.34±12.11%
- Relative abundance, family Rikenellaceae [2]: 3.66±2.13%
- Relative abundance, family Ruminococcaceae [2]: 6.20±4.57%
- Relative abundance, family Verrucomicrobiaceae [2]: 0.80±1.18%
- Relative abundance, genus Coprococcus_1 [2]: 0.21±0.17%
- Relative abundance, genus Family_XIII_AD3011_group [2]: 0.0069±0.0077%
- Relative abundance, genus Lachnoclostridium [2]: 0.81±0.61%
- Relative abundance, genus Lactobacillus [2]: 11.34±12.11%
- Relative abundance, genus Papillibacter [2]: 0.0025±0.0061%
- Relative abundance, genus Peptococcus [2]: 0.0050±0.010%
- Relative abundance, genus Prevotellaceae_NK3B31_group [2]: 2.54±2.44%
- Relative abundance, genus Prevotellaceae_UCG-001 [2]: 4.09±3.41%
- Relative abundance, genus Rikenellaceae_RC9_gut_group [2]: 0.088±0.089%
- Relative abundance, genus Ruminiclostridium [2]: 0.36±0.31%
- Relative abundance, genus Ruminiclostridium_5 [2]: 0.21±0.21%
- Relative abundance, genus Ruminiclostridium_9 [2]: 0.60±0.59%
- Relative abundance, genus Ruminococcaceae_NK4A214_group [2]: 0.023±0.021%
- Relative abundance, genus Ruminococcaceae_UCG-009 [2]: 0.063±0.072%
- Relative abundance, genus Ruminococcaceae_UCG-010 [2]: 0.036±0.042%
- Relative abundance, genus Ruminococcaceae_UCG-014 [2]: 0.19±0.25%
- Relative abundance, genus Ruminococcus_1 [2]: 0.38±0.32%
- Relative abundance, genus Staphylococcus [2]: 0.066±0.060%
- Relative abundance, genus Streptococcus [2]: 0.029±0.016%
- Relative abundance, genus Sutterella [2]: 0.0069±0.010%
- Relative abundance, genus [Eubacterium]_coprostanoligenes_group [2]: 0.22±0.23%
- Relative abundance, genus [Eubacterium]_ventriosum_group [2]: 0.012±0.020%
- Relative abundance, genus g__norank_f__Bacteroidales_S24-7_group [2]: 33.65±5.47%
- Relative abundance, genus g__norank_f__Christensenellaceae [2]: 0.011±0.0079%
- Relative abundance, genus g__norank_f__Lachnospiraceae [2]: 7.54±4.66%
- Relative abundance, genus g__norank_f__Ruminococcaceae [2]: 0.31±0.26%
- Relative abundance, genus norank_o__Mollicutes_RF9 [2]: 0.0075±0.0047%
- Relative abundance, order Anaeroplasmatales [2]: 0.00028±0.00068%
- Relative abundance, order Bacillales [2]: 0.071±0.067%
- Relative abundance, order Clostridiales [2]: 28.89±20.03%
- Relative abundance, order Lactobacillales [2]: 11.34±12.02%
- Relative abundance, order Mollicutes_RF9 [2]: 0.0057±0.0040%
- Relative abundance, order Verrucomicrobiales [2]: 0.78±1.15%
- Relative abundance, phylum Deferribacteres [2]: 0.0044±0.0050%
- Relative abundance, phylum Proteobacteria [2]: 2.05±1.47%
- Relative abundance, phylum Saccharibacteria [2]: 0.35±0.61%
- Relative abundance, phylum Tenericutes [2]: 0.0075±0.0047%
- amount of OTUs vs control (MHO7-30 h group): remarkable reduction
- gut community richness (Sobs index) vs control (MHO7-30 h group): remarkable reduction
- Relative abundance, class Bacilli [3]: 3.25±3.05%
- Relative abundance, class Clostridia [3]: 47.82 ± 20.66%
- Relative abundance, class Mollicutes [3]: 0.0012±0.0031%
- Relative abundance, class Verrucomicrobiae [3]: 2.51±3.67%
- Relative abundance, family Bacteroidales_S24-7_group [3]: 19.34±6.97%
- Relative abundance, family Lachnospiraceae [3]: 42.58±19.32%
- Relative abundance, family Lactobacillaceae [3]: 3.21±2.99%
- Relative abundance, family Rikenellaceae [3]: 3.19±2.16%
- Relative abundance, family Ruminococcaceae [3]: 4.13±1.97%
- Relative abundance, family Verrucomicrobiaceae [3]: 2.51±3.67%
- Relative abundance, genus Coprococcus_1 [3]: 0.11±0.068%
- Relative abundance, genus Family_XIII_AD3011_group [3]: 0.021±0.014%
- Relative abundance, genus Lachnoclostridium [3]: 2.42±2.02%
- Relative abundance, genus Lactobacillus [3]: 3.21±2.99%
- Relative abundance, genus Papillibacter [3]: 0.00062±0.0015%
- Relative abundance, genus Peptococcus [3]: 0.0050±0.0056%
- Relative abundance, genus Prevotellaceae_NK3B31_group [3]: 0.14±0.19%
- Relative abundance, genus Prevotellaceae_UCG-001 [3]: 1.07±1.13%
- Relative abundance, genus Rikenellaceae_RC9_gut_group [3]: 0.042±0.084%
- Relative abundance, genus Ruminiclostridium [3]: 0.079±0.076%
- Relative abundance, genus Ruminiclostridium_5 [3]: 0.27±0.23%
- Relative abundance, genus Ruminiclostridium_9 [3]: 0.41±0.20%
- Relative abundance, genus Ruminococcaceae_NK4A214_group [3]: 0.020±0.023%
- Relative abundance, genus Ruminococcaceae_UCG-009 [3]: 0.012±0.015%
- Relative abundance, genus Ruminococcaceae_UCG-010 [3]: 0.0062±0.0061%
- Relative abundance, genus Ruminococcaceae_UCG-014 [3]: 0.022±0.030%
- Relative abundance, genus Ruminococcus_1 [3]: 0.071±0.15%
- Relative abundance, genus Streptococcus [3]: 0.0025±0.0031%
- Relative abundance, genus Sutterella [3]: 0.090±0.090%
- Relative abundance, genus [Eubacterium]_coprostanoligenes_group [3]: 0.28±0.50%
- Relative abundance, genus [Eubacterium]_ventriosum_group [3]: 0.022±0.041%
- Relative abundance, genus g__norank_f__Bacteroidales_S24-7_group [3]: 19.34±6.97%
- Relative abundance, genus g__norank_f__Christensenellaceae [3]: 0.0069±0.0087%
- Relative abundance, genus g__norank_f__Lachnospiraceae [3]: 19.81±11.07%
- Relative abundance, genus g__norank_f__Ruminococcaceae [3]: 0.16±0.13%
- Relative abundance, genus norank_o__Mollicutes_RF9 [3]: 0.0012±0.0031%
- Relative abundance, order Anaeroplasmatales [3]: 0.00000%
- Relative abundance, order Bacillales [3]: 0.00034±0.00084%
- Relative abundance, order Clostridiales [3]: 47.86±20.61%
- Relative abundance, order Lactobacillales [3]: 3.26±3.04%
- Relative abundance, order Mollicutes_RF9 [3]: 0.0014±0.0025%
- Relative abundance, order Verrucomicrobiales [3]: 2.52±3.65%
- Relative abundance, phylum Deferribacteres [3]: 0.25±0.23%
- Relative abundance, phylum Proteobacteria [3]: 1.34±1.58%
- Relative abundance, phylum Saccharibacteria [3]: 0.0069±0.0055%
- Relative abundance, phylum Tenericutes [3]: 0.0013±0.0031%
- abundance of dominant phyla Firmicutes and Bacteroidetes (at 1, 8 or 30 h after oral administration): no significant differences
